Measurements as given in ChEMBL document CHEMBL4270553, “Synthesis and anticancer activity of new dihydropyrimidinone derivatives” (Eur J Med Chem, 2018).

Experiments:
NCI-H1299 = experiment: Cytotoxicity against human NCI-H1299 cells after 24 hrs by MTT assay; format: functional, cell-based; conditions: NCI-H1299, 24 h
PC-3 = experiment: cells; conditions: Homo sapiens, PC-3, 24 h
Description: Cytotoxicity against human PC3 cells after 24 hrs by MTT assay

[1] = target: Kinesin-like protein KIF11 (Homo sapiens, UniProt P52732); experiment: Inhibition of human Eg5
Chain of Kinesin-like protein KIF11 (P52732 whole entry): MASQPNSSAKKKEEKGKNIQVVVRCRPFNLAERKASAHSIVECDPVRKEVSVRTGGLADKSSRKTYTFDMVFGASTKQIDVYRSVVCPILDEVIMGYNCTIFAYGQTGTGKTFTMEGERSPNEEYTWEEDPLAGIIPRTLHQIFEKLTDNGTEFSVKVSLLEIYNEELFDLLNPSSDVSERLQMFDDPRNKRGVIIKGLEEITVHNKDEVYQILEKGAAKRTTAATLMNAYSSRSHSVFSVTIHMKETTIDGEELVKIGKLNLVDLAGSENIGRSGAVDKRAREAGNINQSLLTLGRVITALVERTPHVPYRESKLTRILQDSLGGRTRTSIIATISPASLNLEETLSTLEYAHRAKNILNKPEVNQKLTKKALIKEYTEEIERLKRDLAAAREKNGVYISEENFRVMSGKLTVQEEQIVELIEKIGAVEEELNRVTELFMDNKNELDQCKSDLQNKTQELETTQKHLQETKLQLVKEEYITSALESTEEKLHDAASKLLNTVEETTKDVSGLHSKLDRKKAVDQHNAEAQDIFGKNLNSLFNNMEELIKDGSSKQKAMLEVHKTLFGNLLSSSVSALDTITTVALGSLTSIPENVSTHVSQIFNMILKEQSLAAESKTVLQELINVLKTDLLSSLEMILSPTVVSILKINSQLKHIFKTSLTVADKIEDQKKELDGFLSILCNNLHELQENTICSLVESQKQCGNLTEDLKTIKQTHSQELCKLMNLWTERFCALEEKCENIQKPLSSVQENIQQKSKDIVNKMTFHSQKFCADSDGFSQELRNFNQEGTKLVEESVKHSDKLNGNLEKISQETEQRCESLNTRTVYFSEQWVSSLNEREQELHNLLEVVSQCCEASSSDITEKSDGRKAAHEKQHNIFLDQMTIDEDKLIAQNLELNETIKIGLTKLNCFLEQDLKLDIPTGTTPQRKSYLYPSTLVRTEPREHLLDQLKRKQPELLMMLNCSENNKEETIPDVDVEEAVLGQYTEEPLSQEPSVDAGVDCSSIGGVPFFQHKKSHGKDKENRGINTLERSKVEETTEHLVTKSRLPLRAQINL

IC50 (PC-3) | IC50 [1] | SMILES | IC50 (NCI-H1299)
37 µM |  | CCOC(=O)C1=C(C)Nc2nc3ccccc3n2C1c1c(O)ccc2ccccc12 (stereo not drawn) | 40 µM
 | 14 µM | CCOC(=O)C1=C(C)NC(=O)NC1c1cccc(O)c1 (stereo not drawn) | 
